The target of this assay is T1, human CXCR6 (Homo sapiens, UniProt O00574).
T1 construct: expressed in transfected cells
The assay can be described thus: Radioligand Binding Assay (125I-CXCL16 displacement). The note with it: L1.2 cells stably transfected with human CXCR6 cDNA, 0.1 nM 125I-CXCL16, 4° C., three-hour incubation; read-out: Potency (IC50). The procedure, abridged: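 L1.2 cells stably expressing human CXCR6 incubated 3 h at 4 °C in HBSS/0.1% BSA with 0.1 nM 125I-CXCL16 and graded compound concentrations. Bound radioactivity collected by filtration and counted; IC50 from 3-parameter nonlinear regression.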

T1 sequence (O00574 whole entry): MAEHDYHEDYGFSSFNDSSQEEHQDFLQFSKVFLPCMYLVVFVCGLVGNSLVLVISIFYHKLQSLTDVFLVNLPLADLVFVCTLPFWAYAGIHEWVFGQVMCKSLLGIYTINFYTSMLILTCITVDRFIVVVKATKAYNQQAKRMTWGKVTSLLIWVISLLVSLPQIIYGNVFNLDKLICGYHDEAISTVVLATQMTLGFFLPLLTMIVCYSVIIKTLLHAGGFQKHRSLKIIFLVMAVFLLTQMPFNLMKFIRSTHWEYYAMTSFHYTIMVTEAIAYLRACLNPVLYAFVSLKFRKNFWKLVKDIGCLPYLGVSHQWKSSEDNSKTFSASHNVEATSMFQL

What is called IC50 is the concentration at which inhibition is half-maximal. For `COc1cc(NC(=O)[C@@H]2CCCNC2)ccc1S(=O)(=O)Nc1cccc(C(F)(F)F)c1` [Example 1.471], the half-maximal inhibitory concentration (IC50) is 2000 to 20000 nM.
Under `CCOc1cc(NC(=O)[C@@H](CO)C(C)C)ccc1S(=O)(=O)Nc1cccc(OC(F)F)c1` [Example 1.066] stands no more than 200 nM; under `CCOc1cc(NC(=O)[C@@H](CO)C(C)C)ccc1S(=O)(=O)Nc1ccc(C)c(OC(F)(F)F)c1` [Example 1.342], no more than 200 nM; under `COc1cc(NC(=O)C2CC3C=CC2O3)ccc1S(=O)(=O)Nc1cccc(OC(F)(F)F)c1` (centres unmarked) [Example 1.179], 200 to 750 nM.
As to `CCOc1cc(NC(=O)[C@@H](CO)c2ccccc2)ccc1S(=O)(=O)Nc1ccc(Cl)c(OC)c1` [Example 1.550], the half-maximal inhibitory concentration (IC50) was 200 to 750 nM.
Then `C=Cc1cc(NS(=O)(=O)c2ccc(NC(=O)[C@@H](CO)c3ccccc3)cc2OCC)ccc1C` [Example 1.372], with no more than 200 nM; and `CCOc1cc(NC(=O)[C@@H](CO)C2CC2)ccc1S(=O)(=O)Nc1cccc(C(C)C)c1` [Example 1.025], with no more than 200 nM.
Then `CCOc1cc(NC(=O)C2CCC(O)C2)ccc1S(=O)(=O)Nc1cccc(OC(F)(F)F)c1` (centres unmarked) [Example 1.373], with 750 to 2000 nM; and `CCOc1cc(NS(=O)(=O)c2ccc(NC(=O)[C@@H](CO)C(C)C)cc2OCC)ccc1Cl` [Example 1.488], with 200 to 750 nM; and `COc1cc(NC(=O)[C@@H](CO)C2CC2)ccc1S(=O)(=O)Nc1cccc(OC(F)(F)F)c1` [Example 1.283], with no more than 200 nM.
Then `CCOc1cc(NC(=O)C2CC=CC2)ccc1S(=O)(=O)Nc1cccc(OC(F)(F)F)c1` [Example 1.319], with 750 to 2000 nM; and `CCCOc1cc(NC(=O)[C@@H](CO)c2ccccc2)ccc1S(=O)(=O)Nc1cccc(CC(F)(F)F)c1` [Example 1.496], with no more than 200 nM.
Take `Cc1ccccc1C(=O)Nc1ccc(S(=O)(=O)Nc2cccc(C(F)(F)F)c2)c(C)c1` [Example 1.293]: the IC50 lay within 200 to 750 nM.
Under `Cc1ccc(C(=O)Nc2ccc(S(=O)(=O)Nc3cccc(C(F)(F)F)c3)c(C)c2)cc1` [Example 1.251] stands 750 to 2000 nM.
Then `CCOc1cc(NC(=O)C(O)C(F)(F)F)ccc1S(=O)(=O)Nc1cccc(OC(F)(F)F)c1` (centres unmarked) [Example 1.406], with no more than 200 nM; and `COc1cc(NC(=O)C2CC3CCC2O3)ccc1S(=O)(=O)Nc1cccc(OC(F)(F)F)c1` (centres unmarked) [Example 1.360], with 200 to 750 nM; and `CC(=O)Nc1ccc(S(=O)(=O)Nc2cccc(C(F)(F)F)c2)c(F)c1` [Example 1.385], with 2000 to 20000 nM.
Under `C=C(C)CC(CCO)C(=O)Nc1ccc(S(=O)(=O)Nc2cccc(OC(F)(F)F)c2)c(OCC)c1` (centres unmarked) [Example 1.180] stands no more than 200 nM; under `CCOc1cc(NC(=O)C(O)c2ccc(C)cc2)ccc1S(=O)(=O)Nc1cccc(OC(F)(F)F)c1` (centres unmarked) [Example 1.466], 200 to 750 nM.
Regarding `CCOc1cc(NC(=O)[C@@H](CO)c2ccccc2)ccc1S(=O)(=O)Nc1ccc(C(F)(F)F)cc1` [Example 1.295], the 50% inhibitory concentration (IC50) lay in the range of 750 to 2000 nM.
Then `COc1cc(NC(=O)C2CCO[C@@H]2C)ccc1S(=O)(=O)Nc1cccc(OC(F)(F)F)c1` (some centres unmarked) [Example 1.364], with 750 to 2000 nM; and `COc1cc(NC(=O)[C@@H](O)C(C)C)ccc1S(=O)(=O)Nc1ccc(C)c(OC(F)(F)F)c1` [Example 1.557], with no more than 200 nM.
Under `Cn1nccc1C(=O)Nc1ccc(S(=O)(=O)Nc2cccc(C(F)(F)F)c2)c(C#N)c1` [Example 1.187] stands 2000 to 20000 nM; under `Cc1cc(NC(=O)C2(C)CCCCC2)ccc1S(=O)(=O)Nc1cccc(C(F)(F)F)c1` [Example 1.265], 2000 to 20000 nM.
Then `CCOc1cc(NC(=O)[C@@H](CO)c2ccccc2)ccc1S(=O)(=O)Nc1ccc(C)c(F)c1` [Example 1.184], with 750 to 2000 nM; and `CCOc1cc(NC(=O)[C@H]2CCOC[C@@H]2O)ccc1S(=O)(=O)Nc1cccc(OC(F)(F)F)c1` [Example 1.410], with 200 to 750 nM.
On to `CCOc1cc(NC(=O)[C@H]2CCCC[C@@H]2OC)ccc1S(=O)(=O)Nc1cccc(OC(F)(F)F)c1` [Example 1.307], for which the concentration for half-maximal inhibition (IC50) is 200 to 750 nM.
Under `Cc1cc(NC(=O)C(CO)C(C)C)ccc1S(=O)(=O)Nc1cccc(OC(F)(F)F)c1` (centres unmarked) [Example 1.400] stands 200 to 750 nM.
Under `CCC(C)[C@H](O)C(=O)Nc1ccc(S(=O)(=O)Nc2cccc(OC(F)(F)F)c2)c(OC)c1` (some centres unmarked) [Example 1.391] stands no more than 200 nM; under `CC(C)[C@H](O)C(=O)Nc1ccc(S(=O)(=O)Nc2cccc(OC(F)(F)F)c2)c(OC(F)(F)F)c1` [Example 1.134], 200 to 750 nM; under `CCOc1cc(NC(=O)C2CCC(O)CC2)ccc1S(=O)(=O)Nc1cccc(OC(F)(F)F)c1` (centres unmarked) [Example 1.285], 2000 to 20000 nM.
On to `CCOc1cc(NC(=O)[C@@H](O)C(C)C)ccc1S(=O)(=O)Nc1ccc(Cl)c(Cl)c1` [Example 1.375], for which the IC50 is no more than 200 nM.
Under `COc1cc(NC(=O)c2ccnn2C)ccc1S(=O)(=O)Nc1cccc(C)c1` [Example 1.242] stands 2000 to 20000 nM; under `CCOc1cc(NC(=O)[C@H]2CC=CC[C@H]2C(=O)O)ccc1S(=O)(=O)Nc1cccc(OC(F)(F)F)c1` [Example 1.160], no more than 200 nM.
Then `COc1cc(NC(=O)c2ccnn2C)ccc1S(=O)(=O)Nc1cccc(Cl)c1` [Example 1.202], with 2000 to 20000 nM.
`Cc1cc(NC(=O)[C@@H](O)C(C)C)ccc1S(=O)(=O)Nc1cccc(OC(F)(F)F)c1` [Example 1.322]: the 50% inhibitory concentration (IC50) is no more than 200 nM.
Then `CCOc1cc(NC(=O)[C@H]2CCOC[C@H]2C)ccc1S(=O)(=O)Nc1cccc(OC(F)(F)F)c1` (racemic) [Example 1.514], with no more than 200 nM; and `CCOc1cc(NC(=O)C(O)c2ccc(O)cc2)ccc1S(=O)(=O)Nc1cccc(OC(F)(F)F)c1` (centres unmarked) [Example 1.527], with 200 to 750 nM; and `Cc1cc(NC(=O)N2CCOCC2)ccc1S(=O)(=O)Nc1cccc(C(F)(F)F)c1` [Example 1.148], with 2000 to 20000 nM.
As for `CCOc1cc(NC(=O)C(C)C(O)C2CCCOC2)ccc1S(=O)(=O)Nc1cccc(OC(F)(F)F)c1` (centres unmarked) [Example 1.435], the IC50 fell in the range of 200 to 750 nM.
Under `CCOc1cc(NC(=O)[C@H]2CC[C@H](OC)CC2)ccc1S(=O)(=O)Nc1cccc(OC(F)(F)F)c1` [Example 1.028] stands 750 to 2000 nM; under `COc1cc(NC(=O)C2CC(=O)N(C)C2)ccc1S(=O)(=O)Nc1cccc(OC(F)(F)F)c1` (centres unmarked) [Example 1.442], 2000 to 20000 nM; under `COc1cc(NC(=O)CC2CCCCC2)ccc1S(=O)(=O)Nc1cccc(C(F)(F)F)c1` [Example 1.344], no more than 200 nM.
Then `CCOc1cc(NC(=O)C(CNC(C)=O)c2ccccc2)ccc1S(=O)(=O)Nc1cccc(OC(F)(F)F)c1` (centres unmarked) [Example 1.386], with no more than 200 nM.
Under `Cc1cc(NC(=O)C2CCCCC2)ccc1S(=O)(=O)Nc1cccc(C(F)(F)F)c1` [Example 1.575] stands 750 to 2000 nM; under `CCOc1cc(NC(=O)C2COCCO2)ccc1S(=O)(=O)Nc1cccc(OC(F)(F)F)c1` (centres unmarked) [Example 1.282], 750 to 2000 nM; under `CCOc1cc(NC(=O)[C@@H](O)C(C)C)ccc1S(=O)(=O)Nc1ccc2c(c1)OC(F)(F)O2` [Example 1.340], 750 to 2000 nM.
With `Cc1cc(NC(=O)[C@@H]2CCCN2C(=O)OC(C)(C)C)ccc1S(=O)(=O)Nc1cccc(C(F)(F)F)c1` [Example 1.012], the IC50 fell in the range of 2000 to 20000 nM.
Under `COc1cc(NC(=O)c2ccnn2C)ccc1S(=O)(=O)Nc1cccc(C(F)(F)F)c1` [Example 1.153] stands 200 to 750 nM; under `CCOc1cc(NC(=O)[C@@H](CO)C2CC2)ccc1S(=O)(=O)Nc1cccc(C(C)(C)C)c1` [Example 1.516], 200 to 750 nM.
Regarding `CCOc1cc(NC(=O)C(O)c2ccc3c(c2)OCO3)ccc1S(=O)(=O)Nc1cccc(OC(F)(F)F)c1` (centres unmarked) [Example 1.091], the half-inhibitory concentration (IC50) lay within 200 to 750 nM.
Then `CC(C)Oc1cc(NC(=O)c2ccnn2C)ccc1S(=O)(=O)Nc1cccc(C(F)(F)F)c1` [Example 1.317], with 2000 to 20000 nM; and `CCOc1cc(NC(=O)[C@@H](CO)C(C)C)ccc1S(=O)(=O)Nc1cccc(Cl)c1OC` [Example 1.362], with 750 to 2000 nM.
On to `CCOc1cc(NC(=O)[C@@H](O)C(C)C)ccc1S(=O)(=O)Nc1ccc(F)c(OC(F)(F)F)c1` [Example 1.209], for which the IC50 is no more than 200 nM.
Under `CCOc1cc(NC(=O)[C@@H](CO)c2ccccc2)ccc1S(=O)(=O)Nc1ccc(CO)c(C(F)(F)F)c1` [Example 1.388] stands 2000 to 20000 nM; under `C=C(C)CC(C(=O)O)C(=O)Nc1ccc(S(=O)(=O)Nc2cccc(OC(F)(F)F)c2)c(OCC)c1` (centres unmarked) [Example 1.176], no more than 200 nM; under `COc1cc(NC(C)=O)ccc1S(=O)(=O)Nc1cccc(C(F)(F)F)c1` [Example 1.374], 2000 to 20000 nM.
Then `CC(C)[C@H](O)C(=O)Nc1ccc(S(=O)(=O)Nc2cccc(OC(F)(F)F)c2)c(C#N)c1` [Example 1.165], with 200 to 750 nM; and `CCOc1cc(NC(=O)[C@@H](CO)C(C)C)ccc1S(=O)(=O)Nc1cccc(C(C)(C)O)c1` [Example 1.353], with 2000 to 20000 nM; and `Cc1cc(NC(=O)C2CCCCC2C)ccc1S(=O)(=O)Nc1cccc(C(F)(F)F)c1` (centres unmarked) [Example 1.538], with 750 to 2000 nM.
Then `Cc1cc(NC(=O)c2cscn2)ccc1S(=O)(=O)Nc1cccc(C(F)(F)F)c1` [Example 1.359], with 2000 to 20000 nM; and `COc1cc(NC(=O)c2ccnn2C)ccc1S(=O)(=O)Nc1ccc(OC(F)(F)F)cc1` [Example 1.228], with 200 to 750 nM.
In the case of `CCOc1cc(NC(=O)[C@@H](CO)c2ccccc2)ccc1S(=O)(=O)Nc1ccc(OC)c(C(F)(F)F)c1` [Example 1.546], the IC50 lay within 200 to 750 nM.
Turning to `COc1cc(NC(=O)CC2CCCO2)ccc1S(=O)(=O)Nc1cccc(C(F)(F)F)c1` (centres unmarked) [Example 1.189], the IC50 lay in the range of 2000 to 20000 nM.
In the case of `COc1cc(NC(=O)CC2CCCCC2)ccc1S(=O)(=O)Nc1cccc(C(F)(F)F)c1` [Example 1.343], the half-inhibitory concentration (IC50) was in the range of 750 to 2000 nM.

Source of the values: patent US20230339851A1, “CXCR6 SULFONAMIDE COMPOUNDS” (CHEMOCENTRYX, INC., priority 2022, published 2023).
